# Molecular target: histone deacetylase (HDAC Enzyme)
# Test: Inhibition of Histone Deacetylase Enzymatic Activity (Boc-Lys(Ac)-AMC, Fluor-de-Lys developer)
# Format: biochemical
# Conditions: Table 9; read-out: HDAC Inhibition (IC50 μM) HDAC Enzyme
# Description: The following protocol is used to assay the compounds of the invention.
# The mixture is pre-incubated for 5 minutes at room temperature. The reaction is started by bringing the temperature to 37° C. and adding 16 μl substrate. Total reaction volume is 50 μl.
# In the Tables 8, 9 and 10, A≦[…]<B≦0.1 μM; 0.1 μM<C≦1 μM; and 1 μM<D≦10 μM.
row,Structure (SMILES),IC50
1,"O=C(NO)c1cnc(N2CC3CC(CN(c4cc(C(F)(F)F)ccn4)C3)C2)nc1 [N-hydroxy-2-(7-(4-(trifluoromethyl)pyridin-2-yl)-3,7-diazabicyclo[3.3.1]nonan-3-yl)pyrimidine-5-carboxamide]",0.1 to 1 µM
2,"O=C(NO)c1cnc(N2C[C@H]3C[C@@H]2CN3c2cc(C(F)(F)F)ccn2)nc1 [N-hydroxy-2-((1R,4R)-5-(4-(trifluoromethyl)pyridin-2-yl)-2,5-diazabicyclo[2.2.1]heptan-2-yl)pyrimidine-5-carboxamide]",< 0.05 µM
3,"Cc1cccc(N2C[C@H]3C[C@@H]2CN3c2ncc(C(=O)NO)cn2)c1 [N-hydroxy-2-((1R,4R)-5-m-tolyl-2,5-diazabicyclo[2.2.1]heptan-2-yl)pyrimidine-5-carboxamide]",0.05 to 0.1 µM
4,"Cc1ccc(N2C[C@H]3C[C@@H]2CN3c2ncc(C(=O)NO)cn2)cc1 [N-hydroxy-2-((1R,4R)-5-p-tolyl-2,5-diazabicyclo[2.2.1]heptan-2-yl)pyrimidine-5-carboxamide]",< 0.05 µM
5,"O=C(NO)c1cnc(N2C[C@@H]3C[C@H]2CN3c2ccccc2C(F)(F)F)nc1 [N-hydroxy-2-((1S,4S)-5-(2-(trifluoromethyl)phenyl)-2,5-diazabicyclo[2.2.1]heptan-2-yl)pyrimidine-5-carboxamide]",0.1 to 1 µM
6,"O=C(NO)c1cnc(N2C[C@@H]3C[C@H]2CN3c2cc(C(F)(F)F)nc3ccccc23)nc1 [N-hydroxy-2-((1S,4S)-5-(2-(trifluoromethyl)quinolin-4-yl)-2,5-diazabicyclo[2.2.1]heptan-2-yl)pyrimidine-5-carboxamide]",< 0.05 µM
7,"O=C(NO)c1cnc(N2C[C@@H]3C[C@H]2CN3c2cccc(OC(F)(F)F)c2)nc1 [N-hydroxy-2-((1S,4S)-5-(3-(trifluoromethoxy)phenyl)-2,5-diazabicyclo[2.2.1]heptan-2-yl)pyrimidine-5-carboxamide]",< 0.05 µM
8,"O=C(NO)c1cnc(N2C[C@@H]3C[C@H]2CN3C(=O)c2cccc(C(F)(F)F)c2)nc1 [N-hydroxy-2-((1S,4S)-5-(3-(trifluoromethyl)benzoyl)-2,5-diazabicyclo[2.2.1]heptan-2-yl)pyrimidine-5-carboxamide]",0.05 to 0.1 µM

# Same assay, conditions: Table 10; read-out: HDAC Inhibition (IC50 μM) HDAC Enzyme
row,Structure (SMILES),IC50
1,"O=C(CCCCCN1C(=O)CN=C(c2ccccc2)c2ccccc21)NO [(Z)-N-hydroxy-6-(2-oxo-5-phenyl-2,3-dihydro-1H-benzo[e][1,4]diazepin-1-yl)hexanamide]",0.1 to 1 µM
2,"O=C(CCCCCCCN1C(=O)CN=C(c2ccccc2)c2ccccc21)NO [(Z)-N-hydroxy-8-(2-oxo-5-phenyl-2,3-dihydro-1H-benzo[e][1,4]diazepin-1-yl)octanamide]",0.1 to 1 µM
3,"O=C(NO)c1cnc(N2CCn3c(nnc3C(F)(F)F)C2)nc1 [N-hydroxy-2-(3-(trifluoromethyl)-5,6-dihydro-[1,2,4]triazolo[4,3-a]pyrazin-7(8H)-yl)pyrimidine-5-carboxamide]",0.05 to 0.1 µM
4,"O=C(NO)c1cnc(N2CCn3c(nnc3-c3ccccc3)C2)nc1 [N-hydroxy-2-(3-phenyl-5,6-dihydro-[1,2,4]triazolo[4,3-a]pyrazin-7(8H)-yl)pyrimidine-5-carboxamide]",< 0.05 µM
5,"O=C(NO)c1cnc(N2C[C@H]3C[C@@]3(c3ccccc3)C2)nc1 [N-hydroxy-2-((1R,5S)-1-phenyl-3-azabicyclo[3.1.0]hexan-3-yl)pyrimidine-5-carboxamide]",0.1 to 1 µM

# Same assay, conditions: read-out: HDAC Inhibtion (IC50 μM) HDAC Enzyme
row,Structure (SMILES),IC50
1,"O=C(NO)c1ccc(C2=Nc3ccccc3N(CCCN3CCOCC3)c3ncccc32)cc1 [(Z)-N-hydroxy-4-(11-(3-morpholinopropyl)-11H-benzo[b]pyrido[2,3-e][1,4]diazepin-5-yl)benzamide]",0.1 to 1 µM
2,"CC(C)N1c2ccccc2N=C(c2ccc(C(=O)NO)cc2)c2cccnc21 [(Z)-N-hydroxy-4-(11-isopropyl-11H-benzo[b]pyrido[2,3-e][1,4]diazepin-5-yl)benzamide]",< 0.05 µM
3,"O=C(NO)c1ccc2c(c1)N=C(c1ccncc1)c1ccccc1O2 [(Z)-N-hydroxy-11-(pyridin-4-yl)dibenzo[b,f][1,4]oxazepine-8-carboxamide]",0.1 to 1 µM
